Measurements: US8501908B2, “Immunogenic peptides” (priority 2008, dated 2013)

Key:
Assay type in all cases: cell-based, human
[1] = system: PBMCs from DLBCL patients; test: γ-IFN release ELISPOT, PBMCs of DLBCL patients after short-term culture with peptides; parameters: γ-IFN response to peptides: unit not given here; settings: for γ-IFN response to peptides: triplicate ELISPOT; for TH γ-IFN response to peptides at time of diagnosis and after one year: DLBCL patients (FIG. 5)
[2] = system: PBMCs from healthy donors; test: γ-IFN release ELISPOT, PBMCs of healthy donors after short-term culture with peptides; settings: triplicate ELISPOT, ± SD
[3] = system: OCI-Ly3 (DLBCL) cell line; test: 51Cr release cytolytic assay of peptide-specific CTL/TH cell lines; settings: PASD1-positive OCI-Ly3; 18 h 51Cr release
Experimental: (§1) A conventional ^51Cr-labelling release assay was used to investigate the ability of CTL and TH cell lines generated from DLBCL patients to lyse PASD1-positive tumour target cells. The target cell lines, consisting of the OCI-Ly3, SUDHL-6, KM-H2 and Thiel, were radiolabelled with 100 μCi ^51Cr for 90 minutes. […] The incubation period of the TH with the target cells was increased to 18 hours. Maximum ^51Cr release was determined following the addition of 10% Triton-X to the radiolabelled target cells and spontaneous release was assessed by adding RPMI1640/FCS to the target cells. The supernatant was harvested and counted in a gamma-counter (Beckmann, Heidelberg, Germany).

[4] = system: SUDHL-6 (DLBCL) cell line; test: as above; settings: PASD1-negative SUDHL-6; 18 h 51Cr release
Experimental: as §1

[5] = system: Thiel (myeloma) cell line; test: as above; settings: PASD1-positive Thiel; 18 h 51Cr release
Experimental: as §1

[6] = Patient 1, De novo DLBCL, DRB1-0102, group Significant response, ± SD
[7] = Patient 2, De novo DLBCL, DRB1-0101, group Significant response, ± SD
[8] = Patient 3, De novo DLBCL, DRB1-0301, group Significant response, ± SD
[9] = Patient 4, De novo DLBCL, DRB1-0102, group Significant response, ± SD
[10] = Patient 8, De novo DLBCL, DRB1-1501, group Significant response, ± SD
[11] = Patient 9, De novo DLBCL, DRB1-0301, group Significant response, ± SD
[12] = Patient 10, De novo DLBCL, DRB1-0101, group No significant response, ± SD
[13] = Patient 12, De novo DLBCL, DRB1-0401, group Significant response, ± SD
[14] = Patient 15, De novo DLBCL, DRB1-1301, group No significant response, ± SD
[15] = Patient 17, De novo DLBCL, DRB1-0301, group No significant response, ± SD
[16] = Patient 18, De novo DLBCL, DRB1-0401, group No significant response, ± SD
[17] = Patient 19, De novo DLBCL, DRB1-1104, group No significant response, ± SD
[18] = Patient 20, De novo DLBCL, DRB1-1303, group No significant response, ± SD
[19] = Patient 21, De novo DLBCL, DRB1-0301, group No significant response, ± SD
[20] = Patient 24, De novo DLBCL, DRB1-1301, group Significant response, ± SD
[21] = Patient 28, Trans DLBCL, DRB1-0701, group No significant response, ± SD
[22] = Patient 37, Trans DLBCL, DRB1-0103, group Significant response, ± SD
[23] = Patient 48, T-cell rich DLBCL, DRB1-0301, group Significant response, ± SD
[24] = Patient 61, De novo DLBCL, DRB1-0401, group No significant response, ± SD
[25] = PBMCs from a DLBCL patient stimulated in culture with PASD1(6) or PASD1(7) peptides, +/− SD

Row | Substance | γ-IFN response to peptides [1, 6] | γ-IFN response to peptides [1, 7] | γ-IFN response to peptides [1, 8] | γ-IFN response to peptides [1, 9] | γ-IFN response to peptides [1, 10] | γ-IFN response to peptides [1, 11] | γ-IFN response to peptides [1, 12] | γ-IFN response to peptides [1, 13] | γ-IFN response to peptides [1, 14] | γ-IFN response to peptides [1, 15] | γ-IFN response to peptides [1, 16] | γ-IFN response to peptides [1, 17] | γ-IFN response to peptides [1, 18] | γ-IFN response to peptides [1, 19] | γ-IFN response to peptides [1, 20] | γ-IFN response to peptides [1, 21] | γ-IFN response to peptides [1, 22] | γ-IFN response to peptides [1, 23] | γ-IFN response to peptides [1, 24] | γ-IFN response to peptides ([2]; Healthy donor HD 1, DRB1-0102) | further results
1 | AENISSLLGHLPAEIVGKKL (listed as Homo sapiens) [PASD1(8)] | 32 ± 3 | 36 ± 6 | 18 ± 2 | 28 ± 4 | 20 ± 4 | 12 ± 3 | 36 ± 4 | 24 ± 4 | 10 ± 1 | 14 ± 2 | 20 ± 2 | 24 ± 2 | 18 ± 2 | 14 ± 2 | 28 ± 4 | 16 ± 2 | 16 ± 2 | 40 ± 6 | 12 ± 2 | 18 ± 2 | γ-IFN response to peptides ([2]; Healthy donor HD 2, DRB1-0401): 10 ± 2; γ-IFN response to peptides ([2]; Healthy donor HD 3, DRB1-0401): 6 ± 2; γ-IFN response to peptides ([2]; Healthy donor HD 4, DRB1-0301): 10 ± 2; γ-IFN response to peptides ([2]; Healthy donor HD 5, DRB1-0301): 10 ± 2
2 | DESFRKYTAFTIPSMNNETP (Human immunodeficiency virus type 1) [HIV-1, control irrelevant peptide from HIV-1 reverse transcriptase used with the TH peptides, reference compound] | 2 ± 1 | 16 ± 2 | 8 ± 2 | 14 ± 2 | 12 ± 4 | 4 ± 2 | 16 ± 4 | 12 ± 2 | 14 ± 4 | 10 ± 2 | 14 ± 2 | 12 ± 2 | 10 ± 2 | 10 ± 2 | 8 ± 2 | 6 ± 2 | 16 ± 2 | 12 ± 2 | 12 ± 2 | 8 ± 2 | γ-IFN response to peptides ([2]; Healthy donor HD 2, DRB1-0401): 6 ± 2; γ-IFN response to peptides ([2]; Healthy donor HD 3, DRB1-0401): 1 ± 1; γ-IFN response to peptides ([2]; Healthy donor HD 4, DRB1-0301): 10 ± 2; γ-IFN response to peptides ([2]; Healthy donor HD 5, DRB1-0301): 8 ± 2
3 | DGFMITLSTDGVIICVAENI (listed as Homo sapiens) [PASD1(7)] | 28 ± 4 | 46 ± 8 | 26 ± 4 | 44 ± 4 | 18 ± 2 | 18 ± 2 | 26 ± 2 | 36 ± 4 | 32 ± 2 | 18 ± 4 | 26 ± 2 | 26 ± 2 | 14 ± 2 | 10 ± 2 | 38 ± 4 | 22 ± 6 | 32 ± 6 | 56 ± 6 | 10 ± 4 | 20 ± 2 | TH γ-IFN response to peptides at time of diagnosis and after one year ([1]; short term culture, p<0.05): significant; γ-IFN response to peptides [1, 25]: 26 +/− 2; immunogenicity among patients studied ([1]; TH γ-IFN response, DLBCL patients): immunogenic in the majority of patients; γ-IFN response to the PASD1(1) CTL peptide elicited by culture with the peptide ([1]; cells cultured 8-10 days with PASD1(6) or PASD1(7), Table 4): comparable; order of immunogenicity for eliciting TH cell responses ([1]; from γ-IFN release assay, order PASD1(6), PASD1(7), PASD1(10), PASD1(9), PASD1(8)): most immunogenic; γ-IFN response to peptides ([2]; Healthy donor HD 2, DRB1-0401): 8 ± 2; γ-IFN response to peptides ([2]; Healthy donor HD 3, DRB1-0401): 10 ± 2; γ-IFN response to peptides ([2]; Healthy donor HD 4, DRB1-0301): 20 ± 2; γ-IFN response to peptides ([2]; Healthy donor HD 5, DRB1-0301): 22 ± 2; lysis by TH cell lines specific for the peptide [3]: Significant dose dependent lysis; lysis by TH cell lines specific for the peptide [4]: no significant lysis; lysis by TH cell lines specific for the peptide [5]: Significant dose dependent lysis
4 | ILKEPVHGV [HIV peptide, reference compound] |  |  |  |  |  |  |  |  |  |  |  |  |  |  |  |  |  |  |  |  | TH γ-IFN response to peptides at time of diagnosis and after one year ([1]; short term culture, p<0.05): No significant response; γ-IFN response to CTL peptides at time of diagnosis and after one year ([1]; HLA-A*0201-positive DLBCL patients (12 and 48, FIG. 2a), short term culture, p<0.05): No significant response
5 | NHPVRFLQAQPIVPVQRAAE (listed as Homo sapiens) [PASD1(10)] | 40 ± 2 | 40 ± 4 | 32 ± 2 | 32 ± 4 | 18 ± 4 | 14 ± 2 | 32 ± 2 | 32 ± 4 | 18 ± 4 | 10 ± 4 | 22 ± 2 | 12 ± 2 | 16 ± 2 | 18 ± 2 | 16 ± 4 | 10 ± 2 | 34 ± 2 | 38 ± 2 | 6 ± 2 | 10 ± 2 | γ-IFN response to peptides ([2]; Healthy donor HD 2, DRB1-0401): 4 ± 2; γ-IFN response to peptides ([2]; Healthy donor HD 3, DRB1-0401): 2 ± 1; γ-IFN response to peptides ([2]; Healthy donor HD 4, DRB1-0301): 18 ± 2; γ-IFN response to peptides ([2]; Healthy donor HD 5, DRB1-0301): 16 ± 2
6 | VGNVCILRTQLLQQLYTSKA (listed as Homo sapiens) [PASD1(9)] | 30 ± 2 | 24 ± 2 | 24 ± 2 | 18 ± 2 | 18 ± 2 | 20 ± 2 | 10 ± 2 | 20 ± 4 | 8 ± 2 | 8 ± 2 | 24 ± 2 | 18 ± 2 | 8 ± 2 | 16 ± 2 | 26 ± 4 | 22 ± 4 | 28 ± 2 | 26 ± 2 | 16 ± 2 | 14 ± 2 | γ-IFN response to peptides ([2]; Healthy donor HD 2, DRB1-0401): 1 ± 1; γ-IFN response to peptides ([2]; Healthy donor HD 3, DRB1-0401): 8 ± 2; γ-IFN response to peptides ([2]; Healthy donor HD 4, DRB1-0301): 19 ± 2; γ-IFN response to peptides ([2]; Healthy donor HD 5, DRB1-0301): 18 ± 2
7 | phytohaemagglutinin [PHA, reference compound] | 98 ± 15 | 106 ± 18 | 62 ± 8 | 98 ± 14 | 48 ± 4 | 118 ± 18 | 78 ± 8 | 72 ± 10 | 58 ± 6 | 54 ± 12 | 62 ± 12 | 58 ± 14 | 52 ± 10 | 102 ± 10 | 86 ± 14 | 45 ± 8 | 126 ± 22 | 84 ± 10 | 58 ± 10 | 86 ± 14 | γ-IFN response to peptides [1, 25]: 48 +/− 2; γ-IFN response to peptides ([2]; Healthy donor HD 2, DRB1-0401): 66 ± 10; γ-IFN response to peptides ([2]; Healthy donor HD 3, DRB1-0401): 46 ± 6; γ-IFN response to peptides ([2]; Healthy donor HD 4, DRB1-0301): 74 ± 16; γ-IFN response to peptides ([2]; Healthy donor HD 5, DRB1-0301): 63 ± 10
